In this assay the target is T1, human plasma protein factor Xa (Homo sapiens, UniProt P00742).
T1 construct: The human plasma protein factor Xa was purchased; purchased Haematologic Technologies (Essex Junction, Vt.); host or cells: human plasma
In words: Factor Xa IC50 determination (cleavage of paranitroanilide substrate S-2765). Type of assay: biochemical. Conditions: factor Xa 1 nM, S-2765 100 μM, Tris buffered saline pH 7.4, read at 405 nm. The gist of the method:
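Human plasma factor Xa (1 nM) preincubated 5 min at room temperature with inhibitor (0.01 nM–10 μM) in Tris-buffered saline pH 7.4 with 5 mM CaCl2, 0.1% BSA, 5% DMSO. S-2765 added at 100 μM final; pNA release followed at 405 nm for 2 min. IC50 from four-parameter fit of initial velocities.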

Bounds are passed on as bounds.

One may read the IC50 as the concentration needed to halve the response being measured.

T1 sequence (P00742 235-488 limits assumed): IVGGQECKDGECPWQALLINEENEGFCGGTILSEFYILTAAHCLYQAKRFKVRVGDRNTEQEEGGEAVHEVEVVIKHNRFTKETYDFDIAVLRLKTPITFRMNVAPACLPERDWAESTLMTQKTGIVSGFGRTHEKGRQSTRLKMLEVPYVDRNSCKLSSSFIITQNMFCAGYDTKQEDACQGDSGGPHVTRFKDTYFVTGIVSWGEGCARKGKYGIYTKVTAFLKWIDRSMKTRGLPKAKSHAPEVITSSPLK
T1 sequence (P00742 41-179 partner limits assumed): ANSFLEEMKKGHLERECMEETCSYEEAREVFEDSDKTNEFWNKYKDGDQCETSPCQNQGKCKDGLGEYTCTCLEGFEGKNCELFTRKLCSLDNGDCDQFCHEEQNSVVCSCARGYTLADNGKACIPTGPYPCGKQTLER

`COc1cc(-c2cc(-n3ccccc3=O)ccc2-n2cc(CNC(=O)c3ccc(Cl)s3)nn2)ccn1` [Compound 138, 5-Chloro-N-((1-(2-(2-methoxypyridin-4-yl)-4-(2-oxopyridin-1(2H)-yl)phenyl)-1H-1,2,3-triazol-4-yl)methyl)thiophene-2-carboxamide] had an IC50 of no more than 100 nM. `Nc1cc(-c2cc(-n3ccccc3=O)ccc2-n2cc(CNC(=O)c3ccc(Cl)s3)nn2)ccn1` [Compound 139, N-((1-(2-(2-Aminopyridin-4-yl)-4-(2-oxopyridin-1(2H)-yl)phenyl)-1H-1,2,3-triazol-4-yl)methyl)-5-chlorothiophene-2-carboxamide] gave an IC50 of no more than 100 nM.

In turn, `CN(C)c1cc(-c2cc(-n3ccccc3=O)ccc2-n2cc(CNC(=O)c3ccc(Cl)s3)nn2)ccn1` [Compound 140, 5-Chloro-N-((1-(2-(2-(dimethylamino)pyridin-4-yl)-4-(2-oxopyridin-1(2H)-yl)phenyl)-1H-1,2,3-triazol-4-yl)methyl)thiophene-2-carboxamide] registered an IC50 of no more than 100 nM.

`CNc1cc(-c2cc(-n3ccccc3=O)ccc2-n2cc(CNC(=O)c3ccc(Cl)s3)nn2)ccn1` [Compound 141, 5-Chloro-N-((1-(2-(2-(methylamino)pyridin-4-yl)-4-(2-oxopyridin-1(2H)-yl)phenyl)-1H-1,2,3-triazol-4-yl)methyl)thiophene-2-carboxamide] showed an IC50 of no more than 100 nM. `O=C(NCc1cn(-c2ccc(-n3ccccc3=O)cc2-c2ccc(O)nc2)nn1)c1ccc(Cl)s1` [Compound 142, 5-Chloro-N-((1-(2-(6-hydroxypyridin-3-yl)-4-(2-oxopyridin-1(2H)-yl)phenyl)-1H-1,2,3-triazol-4-yl)methyl)thiophene-2-carboxamide]: the IC50 was no more than 100 nM.

In the case of `COc1ccc(-c2cc(-n3ccccc3=O)ccc2-n2cc(CNC(=O)c3ccc(Cl)s3)nn2)cn1` [Compound 143, 5-Chloro-N-((1-(2-(6-methoxypyridin-3-yl)-4-(2-oxopyridin-1(2H)-yl)phenyl)-1H-1,2,3-triazol-4-yl)methyl)thiophene-2-carboxamide], the IC50 was no more than 100 nM. Consider `Nc1ccc(-c2cc(-n3ccccc3=O)ccc2-n2cc(CNC(=O)c3ccc(Cl)s3)nn2)cn1` [Compound 144, N-((1-(2-(6-Aminopyridin-3-yl)-4-(2-oxopyridin-1(2H)-yl)phenyl)-1H-1,2,3-triazol-4-yl)methyl)-5-chlorothiophene-2-carboxamide], for which the IC50 was no more than 100 nM.

`CN(C)c1ccc(-c2cc(-n3ccccc3=O)ccc2-n2cc(CNC(=O)c3ccc(Cl)s3)nn2)cn1` [Compound 145, 5-Chloro-N-((1-(2-(6-(dimethylamino)pyridin-3-yl)-4-(2-oxopyridin-1(2H)-yl)phenyl)-1H-1,2,3-triazol-4-yl)methyl)thiophene-2-carboxamide] returned an IC50 of no more than 100 nM. For `CNc1ccc(-c2cc(-n3ccccc3=O)ccc2-n2cc(CNC(=O)c3ccc(Cl)s3)nn2)cn1` [Compound 146, 5-Chloro-N-((1-(2-(6-(methylamino)pyridin-3-yl)-4-(2-oxopyridin-1(2H)-yl)phenyl)-1H-1,2,3-triazol-4-yl)methyl)thiophene-2-carboxamide], the IC50 is no more than 100 nM.

Consider `NC(=O)CCNC(=O)c1cc(-n2ccccc2=O)ccc1-n1cc(CNC(=O)c2ccc(Cl)s2)nn1` [Compound 147, N-((1-(2-(3-Amino-3-oxopropylcarbamoyl)-4-(2-oxopyridin-1(2H)-yl)phenyl)-1H-1,2,3-triazol-4-yl)methyl)-5-chlorothiophene-2-carboxamide], for which the IC50 was 100 to 500 nM.

For the compound `O=C(NCc1cn(-c2ccc(-n3ccccc3=O)cc2OCCn2ccnc2)nn1)c1ccc(Cl)s1` [Compound 148, N-((1-(2-(2-(1H-Imidazol-1-yl)ethoxy)-4-(2-oxopyridin-1(2H)-yl)phenyl)-1H-1,2,3-triazol-4-yl)methyl)-5-chlorothiophene-2-carboxamide], the IC50 was no more than 100 nM. Compound `O=C(NCc1cn(-c2ccc(-n3ccccc3=O)cc2OCCCOC(=O)N2CCOCC2)nn1)c1ccc(Cl)s1` [Compound 150, 3-(2-(4-((5-Chlorothiophene-2-carboxamido)methyl)-1H-1,2,3-triazol-1-yl)-5-(2-oxopyridin-1(2H)-yl)phenoxy)propyl morpholine-4-carboxylate] gave an IC50 of no more than 100 nM. Next, `O=C(NCc1cn(-c2ccc(-n3ccccc3=O)cc2Oc2ccccn2)nn1)c1ccc(Cl)s1` [Compound 151, 5-Chloro-N-((1-(4-(2-oxopyridin-1(2H)-yl)-2-(pyridin-2-yloxy)phenyl)-1H-1,2,3-triazol-4-yl)methyl)thiophene-2-carboxamid]: no more than 100 nM; `O=C(O)COc1cc(-n2ccccc2=O)ccc1-n1nnc(CNC(=O)c2ccc(Cl)s2)c1I` [Compound 152, 2-(2-(4-((5-Chlorothiophene-2-carboxamido)methyl)-5-iodo-1H-1,2,3-triazol-1-yl)-5-(2-oxopyridin-1(2H)-yl)phenoxy)acetic acid]: no more than 100 nM; `O=C(NCc1nnn(-c2ccc(-n3ccccc3=O)cc2OCCCO)c1I)c1ccc(Cl)s1` [Compound 153, 5-Chloro-N-((1-(2-(3-hydroxypropoxy)-4-(2-oxopyridin-1(2H)-yl)phenyl)-5-iodo-1H-1,2,3-triazol-4-yl)methyl)thiophene-2-carboxamide]: 100 to 500 nM. As for `O=C(NCc1nnn(-c2ccc(-n3ccccc3=O)cc2OC[C@H](O)CO)c1I)c1ccc(Cl)s1` [Compound 154, 5-Chloro-N-((1-(2-((R)-2,3-dihydroxypropoxy)-4-(2-oxopyridin-1(2H)-yl)phenyl)-5-iodo-1H-1,2,3-triazol-4-yl)methyl)thiophene-2-carboxamide], the IC50 was in the range of 100 to 500 nM. For the compound `O=C(NCc1nnn(-c2ccc(-n3ccccc3=O)cc2OC[C@@H](O)CO)c1I)c1ccc(Cl)s1` [Compound 155, 5-Chloro-N-((1-(2-((S)-2,3-dihydroxypropoxy)-4-(2-oxopyridin-1(2H)-yl)phenyl)-5-iodo-1H-1,2,3-triazol-4-yl)methyl)thiophene-2-carboxamide], the IC50 is no more than 100 nM. Then `O=C(NCc1cn(-c2ccc(-n3ccccc3=O)cc2OCCn2cccn2)nn1)c1ccc(Cl)s1` [Compound 156, N-((1-(2-(2-(1H-Pyrazol-1-yl)ethoxy)-4-(2-oxopyridin-1(2H)-yl)phenyl)-1H-1,2,3-triazol-4-yl)methyl)-5-chlorothiophene-2-carboxamide], with no more than 100 nM; and `O=C(NCc1cn(-c2ccc(N3CCCCC3=O)cc2N2CCSCC2)nn1)c1ccc(Cl)s1` [Compound 157, 5-Chloro-N-((1-(4-(2-oxopiperidin-1-yl)-2-thiomorpholinophenyl)-1H-1,2,3-triazol-4-yl)methyl)thiophene-2-carboxamide], with no more than 100 nM; and `O=C(NCc1cn(-c2ccc(N3CCCCC3=O)cc2N2CCS(=O)(=O)CC2)nn1)c1ccc(Cl)s1` [Compound 158, 5-Chloro-N-((1-(4-(2-oxopiperidin-1-yl)-2-((1,1-dioxo)thiomorpholino)phenyl)-1H-1,2,3-triazol-4-yl)methyl)thiophene-2-carboxamide], with no more than 100 nM. In turn, `O=C1CN(c2cc(N3CCCCC3=O)ccc2-n2cc(CNC(=O)c3ccc(Cl)s3)nn2)CCN1` [Compound 159, 5-Chloro-N-((1-(2-(3-oxopiperazin-1-yl)-4-(2-oxopiperidin-1-yl)phenyl)-1H-1,2,3-triazol-4-yl)methyl)thiophene-2-carboxamide] had an IC50 of no more than 100 nM. The compound `O=C(NCc1cn(-c2ccc(-n3ccccc3=O)cc2CN2CCOCC2)nn1)c1ccc(Cl)s1` [Compound 160, 5-Chloro-N-((1-(2-(morpholinomethyl)-4-(2-oxopyridin-1(2H)-yl)phenyl)-1H-1,2,3-triazol-4-yl)methyl)thiophene-2-carboxamide] registered an IC50 of no more than 100 nM. The compound `O=C1CN(Cc2cc(-n3ccccc3=O)ccc2-n2cc(CNC(=O)c3ccc(Cl)s3)nn2)CCN1` [Compound 161, 5-Chloro-N-((1-(2-((3-oxopiperazin-1-yl)methyl)-4-(2-oxopyridin-1(2H)-yl)phenyl)-1H-1,2,3-triazol-4-yl)methyl)thiophene-2-carboxamide] registered an IC50 of no more than 100 nM. Next, `O=C(NCc1cn(-c2ccc(-n3ccccc3=O)cc2CN2CCSCC2)nn1)c1ccc(Cl)s1` [Compound 162, 5-Chloro-N-((1-(4-(2-oxopyridin-1(2H)-yl)-2-(thiomorpholinomethyl)phenyl)-1H-1,2,3-triazol-4-yl)methyl)thiophene-2-carboxamide]: no more than 100 nM.

Regarding `O=C(NCc1cn(-c2ccc(-n3ccccc3=O)cc2CN2CCS(=O)(=O)CC2)nn1)c1ccc(Cl)s1` [Compound 163, 5-Chloro-N-((1-(4-(2-oxopyridin-1(2H)-yl)-2-(1,1,- dioxothiomorpholinomethyl)phenyl)-1H-1,2,3-triazol-4-yl)methyl)thiophene-2-carboxamide], the IC50 is no more than 100 nM. Turning to `CCOc1cc(-n2ccccc2=O)ccc1-n1cc(CNC(=O)c2ccc(Cl)s2)nn1` [Compound 164, 5-Chloro-N-((1-(2-ethoxy-4-(2-oxopyridin-1(2H)-yl)phenyl)-1H-1,2,3-triazol-4-yl)methyl)thiophene-2-carboxamide], the IC50 was no more than 100 nM.

In turn, `O=C(NCc1cn(-c2ccc(-n3ccccc3=O)cc2OCc2cccnc2)nn1)c1ccc(Cl)s1` [Compound 165, 5-Chloro-N-((1-(4-(2-oxopyridin-1(2H)-yl)-2-(pyridin-3-ylmethoxy)phenyl)-1H-1,2,3-triazol-4-yl)methyl)thiophene-2-carboxamide] registered a concentration for half-maximal inhibition (IC50) of no more than 100 nM. `O=C(NCc1cn(-c2ccc(-n3ccccc3=O)cc2OCc2ccncc2)nn1)c1ccc(Cl)s1` [Compound 167, 5-Chloro-N-((1-(4-(2-oxopyridin-1(2H)-yl)-2-(pyridin-4-ylmethoxy)phenyl)-1H-1,2,3-triazol-4-yl)methyl)thiophene-2-carboxamide] gave an IC50 of no more than 100 nM.

These data come from patent US20110160196A1, “FACTOR XA INHIBITORS” (Millennium Pharmaceuticals, Inc., priority 2007, published 2011).
